Measurements: ChEMBL document CHEMBL4680259, “Discovery of bazedoxifene analogues targeting glycoprotein 130” (Eur J Med Chem, 2020)

Experiments:
[1] = system: A549; assay: Induction of apoptosis in human A549 cells assessed as necrotic cells at 6 uM incubated for 24 hrs by annexin V-FITC and propidium iodide staining based flow cytometry analysis (reference value: 0.4 %); assay type: functional
[2] = AUC (0 to t) in rat at 0.5 mg/kg, iv; assay type: ADME, organism-based; parameters: dose 0.5 mg/kg; details: in vivo
[3] = AUC (0 to t) in rat at 5 mg/kg, ig; assay type: ADME, organism-based; parameters: dose 5 mg/kg; details: in vivo, po
[4] = system: A549; assay: Induction of apoptosis in human A549 cells assessed as necrotic cells at 3 uM incubated for 24 hrs by annexin V-FITC and propidium iodide staining based flow cytometry analysis (reference value: 0.4 %); assay type: functional
[5] = Mean residence time in rat at 5 mg/kg, ig; assay type: ADME, organism-based; details: in vivo, po

`NC(=O)N1N=C(c2ccc(C(F)(F)F)cc2)CC1c1cn(Cc2ccc(OCCN3CCCCCC3)cc2)c2ccc(Br)cc12` (stereo not given) showed an Activity [1] of 1.9%, an AUC(0-t) [2] of 468 ng·h/mL and an AUC(0-t) [3] of 304 ng·h/mL. The Activity [4] was 0.4% and the MRT [5] was 11.6 h.
